Test results as given in ChEMBL document CHEMBL5331057, “A decade of approved first-in-class small molecule orphan drugs: Achievements, challenges and perspectives” (Eur J Med Chem, 2022).
Converted amounts (≈) assume the structure as drawn.

Legend:
cells = details: Homo sapiens, HAC15, 72 h
SW-620 = test: cells; details: Homo sapiens
Melanocortin receptor 4 = Melanocortin receptor 4 (Rattus norvegicus, UniProt P70596); test: Inhibition of rat MC4R
Methionine synthase = Methionine synthase (Homo sapiens, UniProt Q99707); test: Inhibition of MTR (unknown origin)
HepG2 = test: cells; details: Homo sapiens, HepG2, read-out: ED50
RBL-2H3 = test: Antiproliferative activity against rat RBL-2H3 cells assessed as […]; format: functional, cell-based
Exportin-1 [1] = target: T1, Exportin-1 (Homo sapiens, UniProt O14980); test: Inhibition of XPO1 in human MOLT-16 cells; format: cell-based
Exportin-1 [2] = target: T1, Exportin-1; test: Inhibition of XPO1 in human HPBALL cells; format: cell-based
GTPase KRas [3] = target: T2, GTPase KRas (Homo sapiens, UniProt P01116); test: Inhibition of K-Ras in human NCI-H460 cells; format: cell-based
[4] = Inhibition of wild type FTase (unknown origin); set-up: species or system Homo sapiens
GTPase HRas = GTPase HRas (Homo sapiens, UniProt P01112); test: Inhibition of H-Ras (unknown origin)
GTPase KRas [5] = target: T2, GTPase KRas; test: Inhibition of K-Ras (unknown origin)
Brain = test: Neuroprotective activity in Wistar rat brain homogenate assessed as inhibition of lipid peroxidation incubated for 10 mins by fluorometric analysis; format: functional, tissue-based
[6] = target: Soluble guanylate cyclase (Homo sapiens) (UniProt Q02153+O75343+P33402+Q02108); test: Stimulation of recombinant sGC (unknown origin) expressed in CHO cells assessed as formation of cGMP; format: cell-based; details: filed as activator
Aorta = test: Relaxation of pre-contracted rabbit aorta; format: functional, tissue-based; details: Oryctolagus cuniculus
[7] = target: Hepatocyte growth factor receptor (Homo sapiens, UniProt P08581); test: Inhibition of c-Met (unknown origin)
Malme-3M = test: Antiproliferative activity against human Malme-3M cells assessed as inhibition of cell growth; format: functional, cell-based
[8] = tested on: Mycobacterium tuberculosis; test: microbe, parasite or virus in culture
[9] = tested on: Mycobacterium tuberculosis; test: microbe, parasite or virus in culture; remark: listed apart in the source
[10] = Cytotoxicity against human HBE cells assessed as inhibition of cell growth; format: toxicity, cell-based
[11] = target: Cystic fibrosis transmembrane conductance regulator (Homo sapiens, UniProt P13569, F508DEL)
Human betaherpesvirus 5 = test: Antiviral activity against HCMV infected in human NHDF cells assessed as reduction in virus plaque formation; format: functional, organism-based; details: Human betaherpesvirus 5, NHDF
K562 = test: Antiproliferative activity against human K562 cells assessed as inhibition of cell growth; format: functional, cell-based
RS4-11 = test: Antiproliferative activity against human RS4-11 cells assessed as […]; format: functional, cell-based
[12] = target: Isocitrate dehydrogenase [NADP], mitochondrial (Homo sapiens, UniProt P48735); test: Inhibition of IDH2 (unknown origin)
HCT-116 = test: Antiproliferative activity against human HCT-116 cells assessed as inhibition of cell growth; format: functional, cell-based

T2 sequence (P01116 whole entry): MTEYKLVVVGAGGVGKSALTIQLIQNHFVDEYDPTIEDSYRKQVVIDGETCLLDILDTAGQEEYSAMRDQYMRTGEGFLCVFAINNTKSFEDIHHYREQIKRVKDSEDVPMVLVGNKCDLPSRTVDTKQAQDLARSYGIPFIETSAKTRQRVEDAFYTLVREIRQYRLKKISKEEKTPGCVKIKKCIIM
T1 sequence (O14980 whole entry): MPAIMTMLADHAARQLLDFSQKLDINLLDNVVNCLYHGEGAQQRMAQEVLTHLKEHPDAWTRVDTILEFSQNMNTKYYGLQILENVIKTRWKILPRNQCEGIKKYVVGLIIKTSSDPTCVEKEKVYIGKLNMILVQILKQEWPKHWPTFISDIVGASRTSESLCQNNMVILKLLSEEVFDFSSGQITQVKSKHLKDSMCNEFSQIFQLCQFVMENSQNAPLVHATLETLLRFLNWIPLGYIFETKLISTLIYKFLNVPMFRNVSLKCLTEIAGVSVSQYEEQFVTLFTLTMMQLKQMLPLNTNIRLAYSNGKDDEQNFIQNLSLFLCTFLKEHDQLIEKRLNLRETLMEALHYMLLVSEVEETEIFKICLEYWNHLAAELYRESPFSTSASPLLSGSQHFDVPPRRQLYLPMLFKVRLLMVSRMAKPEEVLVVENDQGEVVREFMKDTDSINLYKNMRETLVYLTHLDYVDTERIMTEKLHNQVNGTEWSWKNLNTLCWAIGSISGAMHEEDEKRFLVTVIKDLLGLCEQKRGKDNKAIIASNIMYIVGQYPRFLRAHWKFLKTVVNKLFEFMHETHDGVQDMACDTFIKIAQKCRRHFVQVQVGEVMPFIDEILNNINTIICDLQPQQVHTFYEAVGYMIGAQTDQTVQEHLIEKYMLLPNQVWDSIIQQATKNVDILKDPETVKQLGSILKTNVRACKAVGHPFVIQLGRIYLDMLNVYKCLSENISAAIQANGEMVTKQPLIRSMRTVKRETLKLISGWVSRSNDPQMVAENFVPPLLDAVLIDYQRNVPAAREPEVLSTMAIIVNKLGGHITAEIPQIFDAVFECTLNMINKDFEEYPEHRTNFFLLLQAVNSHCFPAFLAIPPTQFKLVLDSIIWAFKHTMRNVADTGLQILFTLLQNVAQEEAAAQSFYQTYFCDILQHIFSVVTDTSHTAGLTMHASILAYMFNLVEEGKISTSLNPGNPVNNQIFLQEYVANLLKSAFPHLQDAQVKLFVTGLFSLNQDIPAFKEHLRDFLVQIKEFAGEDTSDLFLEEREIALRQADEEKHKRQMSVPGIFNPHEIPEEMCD
Chain of Methionine synthase (Q99707 whole entry): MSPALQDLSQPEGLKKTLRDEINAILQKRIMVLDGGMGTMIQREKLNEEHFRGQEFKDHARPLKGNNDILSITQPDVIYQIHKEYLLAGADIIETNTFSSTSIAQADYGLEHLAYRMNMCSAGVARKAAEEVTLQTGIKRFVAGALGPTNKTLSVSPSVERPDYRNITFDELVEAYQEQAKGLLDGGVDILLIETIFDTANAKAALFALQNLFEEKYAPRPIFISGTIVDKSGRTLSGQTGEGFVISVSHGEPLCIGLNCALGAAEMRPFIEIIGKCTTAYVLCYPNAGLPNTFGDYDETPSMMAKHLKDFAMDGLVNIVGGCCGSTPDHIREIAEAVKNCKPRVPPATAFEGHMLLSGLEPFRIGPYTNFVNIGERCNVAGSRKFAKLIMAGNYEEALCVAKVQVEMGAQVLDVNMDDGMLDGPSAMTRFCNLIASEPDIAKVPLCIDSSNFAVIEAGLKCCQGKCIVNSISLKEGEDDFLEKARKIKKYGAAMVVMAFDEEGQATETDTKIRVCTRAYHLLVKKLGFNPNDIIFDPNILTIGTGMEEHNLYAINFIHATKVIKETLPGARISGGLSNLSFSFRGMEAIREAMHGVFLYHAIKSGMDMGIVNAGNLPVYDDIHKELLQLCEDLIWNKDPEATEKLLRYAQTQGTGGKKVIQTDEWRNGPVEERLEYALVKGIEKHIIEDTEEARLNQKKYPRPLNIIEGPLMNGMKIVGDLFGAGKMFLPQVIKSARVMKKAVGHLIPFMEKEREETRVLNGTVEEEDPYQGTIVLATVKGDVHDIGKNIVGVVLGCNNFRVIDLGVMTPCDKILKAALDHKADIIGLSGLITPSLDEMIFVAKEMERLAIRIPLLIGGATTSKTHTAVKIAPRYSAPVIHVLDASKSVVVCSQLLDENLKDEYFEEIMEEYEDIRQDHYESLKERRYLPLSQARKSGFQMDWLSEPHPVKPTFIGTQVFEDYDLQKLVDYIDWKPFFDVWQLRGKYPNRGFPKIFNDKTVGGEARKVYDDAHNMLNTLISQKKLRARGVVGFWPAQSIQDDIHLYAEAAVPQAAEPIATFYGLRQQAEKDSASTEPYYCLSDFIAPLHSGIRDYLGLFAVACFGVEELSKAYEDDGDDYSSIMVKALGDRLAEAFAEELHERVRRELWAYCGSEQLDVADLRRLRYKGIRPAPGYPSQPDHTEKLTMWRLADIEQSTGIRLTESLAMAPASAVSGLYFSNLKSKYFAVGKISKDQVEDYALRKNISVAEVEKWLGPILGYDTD
Chain of Cystic fibrosis transmembrane conductance regulator (P13569 as listed by the source): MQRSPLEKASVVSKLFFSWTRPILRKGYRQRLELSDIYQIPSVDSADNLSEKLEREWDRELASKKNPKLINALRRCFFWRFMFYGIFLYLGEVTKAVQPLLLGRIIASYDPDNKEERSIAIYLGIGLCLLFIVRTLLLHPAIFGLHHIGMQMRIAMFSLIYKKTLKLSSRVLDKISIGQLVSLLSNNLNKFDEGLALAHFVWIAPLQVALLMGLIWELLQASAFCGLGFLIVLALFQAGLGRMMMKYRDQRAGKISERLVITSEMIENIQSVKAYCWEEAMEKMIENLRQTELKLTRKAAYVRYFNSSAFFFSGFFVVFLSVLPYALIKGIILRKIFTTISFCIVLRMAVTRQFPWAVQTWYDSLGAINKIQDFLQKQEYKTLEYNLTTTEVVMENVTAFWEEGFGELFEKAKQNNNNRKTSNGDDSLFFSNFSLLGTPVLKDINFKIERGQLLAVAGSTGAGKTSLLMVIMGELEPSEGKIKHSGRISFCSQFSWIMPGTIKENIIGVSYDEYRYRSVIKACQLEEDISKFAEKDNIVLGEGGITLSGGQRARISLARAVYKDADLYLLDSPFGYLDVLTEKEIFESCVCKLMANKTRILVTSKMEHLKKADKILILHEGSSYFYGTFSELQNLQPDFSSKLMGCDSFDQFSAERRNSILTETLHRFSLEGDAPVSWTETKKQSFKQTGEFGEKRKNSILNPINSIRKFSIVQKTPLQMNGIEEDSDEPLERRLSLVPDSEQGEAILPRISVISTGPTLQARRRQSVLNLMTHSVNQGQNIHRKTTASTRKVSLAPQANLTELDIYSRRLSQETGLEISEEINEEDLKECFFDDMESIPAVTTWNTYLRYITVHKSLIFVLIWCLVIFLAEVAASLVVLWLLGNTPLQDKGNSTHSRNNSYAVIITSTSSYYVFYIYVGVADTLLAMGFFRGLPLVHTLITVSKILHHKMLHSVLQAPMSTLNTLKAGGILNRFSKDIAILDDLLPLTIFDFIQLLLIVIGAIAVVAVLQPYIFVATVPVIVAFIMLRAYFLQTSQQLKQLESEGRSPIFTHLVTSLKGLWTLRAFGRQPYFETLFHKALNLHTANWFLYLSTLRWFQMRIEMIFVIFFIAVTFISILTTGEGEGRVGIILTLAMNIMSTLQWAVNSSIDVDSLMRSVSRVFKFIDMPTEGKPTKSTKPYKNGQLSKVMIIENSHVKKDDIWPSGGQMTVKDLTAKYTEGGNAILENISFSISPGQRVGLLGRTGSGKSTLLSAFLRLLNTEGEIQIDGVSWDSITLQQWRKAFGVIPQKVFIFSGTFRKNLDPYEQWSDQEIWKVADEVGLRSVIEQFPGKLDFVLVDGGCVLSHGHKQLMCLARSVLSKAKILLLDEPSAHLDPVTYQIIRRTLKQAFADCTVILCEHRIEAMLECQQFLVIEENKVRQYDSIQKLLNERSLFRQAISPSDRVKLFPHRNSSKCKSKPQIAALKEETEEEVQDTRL
Chain of Isocitrate dehydrogenase [NADP], mitochondrial (P48735 whole entry): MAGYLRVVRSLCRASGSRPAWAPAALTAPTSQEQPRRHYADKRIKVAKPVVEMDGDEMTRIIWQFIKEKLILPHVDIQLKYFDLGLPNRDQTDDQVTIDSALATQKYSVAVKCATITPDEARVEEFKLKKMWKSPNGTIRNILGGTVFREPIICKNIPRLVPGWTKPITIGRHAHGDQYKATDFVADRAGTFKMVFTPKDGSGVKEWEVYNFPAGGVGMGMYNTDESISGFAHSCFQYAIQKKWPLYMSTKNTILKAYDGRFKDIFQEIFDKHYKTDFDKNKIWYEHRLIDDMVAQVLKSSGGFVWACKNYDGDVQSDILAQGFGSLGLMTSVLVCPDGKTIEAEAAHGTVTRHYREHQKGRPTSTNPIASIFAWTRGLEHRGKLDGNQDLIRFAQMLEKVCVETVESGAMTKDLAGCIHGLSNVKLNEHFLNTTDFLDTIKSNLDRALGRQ
Chain of GTPase HRas (P01112 whole entry): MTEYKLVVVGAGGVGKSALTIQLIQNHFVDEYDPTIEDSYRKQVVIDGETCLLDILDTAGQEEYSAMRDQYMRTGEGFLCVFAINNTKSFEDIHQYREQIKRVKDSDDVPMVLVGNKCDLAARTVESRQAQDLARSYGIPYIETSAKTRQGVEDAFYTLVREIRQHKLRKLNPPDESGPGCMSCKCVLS
Chain of Melanocortin receptor 4 (P70596 whole entry): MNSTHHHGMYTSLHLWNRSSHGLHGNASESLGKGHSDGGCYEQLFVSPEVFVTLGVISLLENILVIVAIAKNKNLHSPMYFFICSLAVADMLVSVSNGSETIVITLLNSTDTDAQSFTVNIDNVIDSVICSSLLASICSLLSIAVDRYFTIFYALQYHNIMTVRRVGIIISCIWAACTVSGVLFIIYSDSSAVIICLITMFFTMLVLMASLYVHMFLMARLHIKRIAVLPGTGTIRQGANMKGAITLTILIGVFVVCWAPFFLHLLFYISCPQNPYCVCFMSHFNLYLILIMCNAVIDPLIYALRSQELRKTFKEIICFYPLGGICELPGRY

N#Cc1ccc([C@H]2CCc3cncn32)c(F)c1 [OSILODROSTAT]
IC50 (cells): 35 nM

O=C(c1cc(Cc2n[nH]c(=O)c3ccccc23)ccc1F)N1CCN(C(=O)C2CC2)CC1 [OLAPARIB]
IC50 (SW-620): 6 nM

CC(=O)N[C@@H](CCCNC(=N)N)C(=O)N[C@H]1CSSC[C@@H](C(N)=O)NC(=O)[C@H](Cc2c[nH]c3ccccc23)NC(=O)[C@H](CCCNC(=N)N)NC(=O)[C@@H](Cc2ccccc2)NC(=O)[C@H](Cc2c[nH]cn2)NC(=O)[C@@H](C)NC1=O [SETMELANOTIDE]
EC50 (Melanocortin receptor 4): 0.28 nM

O=C1c2ccccc2CN1C1CCN(CCC(c2ccccc2)c2ccccc2)CC1
IC50 (Methionine synthase): 2.2 nM
EC50 (HepG2): 2.2 nM

CCOC(=O)[C@@H](N)Cc1ccc(-c2cc(O[C@H](c3ccc(Cl)cc3-n3ccc(C)n3)C(F)(F)F)nc(N)n2)cc1 [TELOTRISTAT ETIPRATE]
IC50 (RBL-2H3): 400 nM

COc1cc(-c2ncn(/C=C\C(=O)OC(C)C)n2)cc(C(F)(F)F)c1
IC50 (Exportin-1 [1]): 112 nM
IC50 (Exportin-1 [2]): 16 nM

NC(=O)N1CCC(CC(=O)N2CCC([C@H]3c4ncc(Br)cc4CCc4cc(Cl)cc(Br)c43)CC2)CC1 [LONAFARNIB]
IC50 (GTPase KRas [3]): 40 nM

O=C(Cc1ccncc1)N1CCN([C@H]2c3ccc(Cl)cc3CCc3cccnc32)CC1
IC50 [4]: 490 nM
IC50 (GTPase HRas): 1.9 nM
IC50 (GTPase KRas [5]): 5.2 nM

CC1=NN(c2ccccc2)C(=O)C1 [EDARAVONE]
IC50 (Brain): 18200 nM

COC(=O)N(C)c1c(N)nc(-c2nn(Cc3ccccc3F)c3ncccc23)nc1N [RIOCIGUAT]
MEC [6]: 0.03 µM
IC50 (Aorta): 120 nM

Cc1[nH]c(/C=C2\C(=O)Nc3ccc(S(=O)(=O)C(C)c4c(Cl)cccc4Cl)cc32)c(C)c1C(=O)N1CCC[C@@H]1CN1CCCC1 (some centres undefined)
IC50 [7]: 9 nM

Cn1cnc2c(F)c(Nc3ccc(Br)cc3Cl)c(C(=O)NOCCO)cc21 [SELUMETINIB]
IC50 (Malme-3M): 59 nM

CO[C@H]1/C=C/O[C@@]2(C)Oc3c(C)c(O)c4c(O)c(c(/C=N/N5CCN(C)CC5)c(O)c4c3C2=O)NC(=O)/C(C)=C\C=C\[C@H](C)[C@H](O)[C@@H](C)[C@@H](O)[C@@H](C)[C@H](OC(C)=O)[C@@H]1C [RIFAMPIN]
MIC [8]: 0.5 µg/mL (≈ 0.608 µM)
MIC [9]: 0.5 µg/mL (≈ 0.608 µM)

CC(C)(C)c1cc(C(C)(C)C)c(NC(=O)c2c[nH]c3ccccc3c2=O)cc1O [IVACAFTOR]
EC50 [10]: 236 nM
EC50 [11]: 25 nM

COc1cccc(N2CCN(C3=Nc4c(F)cccc4[C@H](CC(=O)O)N3c3cc(C(F)(F)F)ccc3OC)CC2)c1 [LETERMOVIR]
EC50 (Human betaherpesvirus 5): 4.5 nM
EC90 (Human betaherpesvirus 5): 6.1 nM

COC(=O)C[C@](O)(CCCC(C)(C)O)C(=O)O[C@@H]1C(OC)=C[C@]23CCCN2CCc2cc4c(cc2[C@H]13)OCO4 [OMACETAXINE MEPESUCCINATE]
IC50 (K562): 21 nM

CC1(C)CCC(c2ccc(Cl)cc2)=C(CN2CCN(c3ccc(C(=O)NS(=O)(=O)c4ccc(NCC5CCOCC5)c([N+](=O)[O-])c4)c(Oc4cnc5[nH]ccc5c4)c3)CC2)C1
EC50 (RS4-11): 8 nM

O=C(c1c[nH]c2ccccc2c1=O)N(Cc1ccccc1)Cc1ccccc1
EC50 [11]: 2.1 nM

CC(C)(C)Nc1nc(Nc2ccccc2)nc(-c2ccccc2)n1
IC50 [12]: 100 nM
IC50 (HCT-116): 530 nM

NNC(=O)c1ccncc1 [ISONIAZID]
MIC [8]: 0.12 µg/mL (≈ 0.875 µM)
MIC [9]: 0.12 µg/mL (≈ 0.875 µM)

O=C(NC1CCN(CCCCC2(C(=O)NCC(F)(F)F)c3ccccc3-c3ccccc32)CC1)c1ccccc1-c1ccc(C(F)(F)F)cc1 [LOMITAPIDE]
IC50 (Methionine synthase): 0.5 nM
EC50 (HepG2): 0.8 nM

COc1nc2ccc(Br)cc2cc1[C@@H](c1ccccc1)[C@@](O)(CCN(C)C)c1cccc2ccccc12 [BEDAQUILINE]
MIC [8]: 0.03 µg/mL (≈ 0.054 µM)
MIC [9]: 0.03 µg/mL (≈ 0.054 µM)
